One assay concerns the target T1, heme-bound REV-ERBβ LBD (Homo sapiens, UniProt Q14995).
T1 construct: The human REV-ERBβ LBD (residues 381 to 579) was previously cloned; 6xHis with 3C protease cleavage site (N, cleaved yes); made in house; host or cells: E. coli BL21(DE3)
T1 sequence (Q14995 381-579): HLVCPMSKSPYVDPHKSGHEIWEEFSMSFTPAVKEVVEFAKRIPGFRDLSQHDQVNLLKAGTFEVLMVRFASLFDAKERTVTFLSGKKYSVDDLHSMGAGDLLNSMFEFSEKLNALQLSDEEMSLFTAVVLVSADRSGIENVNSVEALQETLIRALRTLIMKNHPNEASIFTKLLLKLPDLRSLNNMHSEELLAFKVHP
The experiment in a line: ITC, NCoR ID peptides with heme-bound REV-ERBβ LBD. In kind it is binding. Particulars: for TΔS: pH 7.4, T constant at 25°C; for thermodynamic profile of peptide binding (in words), + heme: heme-bound LBD; for effect of heme on LBD affinity for peptide (in words): heme-bound vs apo LBD. (In general: Isothermal titration calorimetry measures the heat released or taken up as one component is titrated into another.)

For assay [1], the system named is apo 15N-labeled REV-ERBβ LBD. Nature of the assay: NMR structural footprinting, 2D [1H,15N]-TROSY-HSQC titration, apo LBD. Conditions: apo LBD (200 μM), 298 K, 20 mM Hepes pH 7.4, 50 mM NaCl, 0.5 mM EDTA. The assay is classed as binding, human. From the text: To support our ITC results, we performed solution NMR structural footprinting by titrating NCoR ID1 or ID2 peptide into ^15N-labeled REV-ERBβ LBD. For this analysis, we used backbone NMR chemical shift assignments that we previously reported for apo LBD ([18]) and collected three-dimensional (3D) NMR data to obtain backbone NMR chemical shift assignments for heme-bound LBD (fig. S4). […] To qualitatively assess the strength of each interaction, we analyzed the exchange regime of NMR chemical shift changes on the NMR time scale. […]
(§1) To generate heme-bound protein, 1.25 molar equivalents of heme prepared in 0.2 M NaOH as a 50 mM stock were added to ^15N-labeled REV-ERBβ LBD (200 μM) or ^2H-,^15N-,^13C-labeled REV-ERBβ LBD (1 mM) in Hepes buffer [20 mM Hepes (pH 7.4), 50 mM NaCl, and 0.5 mM EDTA]. NMR data were collected at 298 K on a Bruker 700-MHz NMR system equipped with a QCI CryoProbe, processed using NMRFx ([40]), and analyzed using NMRViewJ ([41]). […] 2D [^1H,^15N]-TROSY-HSQC data were collected for heme-bound ^15N-labeled REV-ERBβ LBD at 298 K with addition of NCoR ID1 or ID2 peptides prepared as 50 mM stock in DMSO and analyzed in NMRViewJ. […]

Assay [2] concerns heme-bound 15N-labeled REV-ERBβ LBD. The experiment in a line: NMR structural footprinting, 2D [1H,15N]-TROSY-HSQC titration, heme-bound LBD. In kind it is binding, human. Particulars: 298 K; for NMR exchange regime on peptide titration: heme-bound LBD (200 μM, 1.25 equivalents heme), 20 mM Hepes pH 7.4, 50 mM NaCl, 0.5 mM EDTA; for NMR CSP and line broadening, binding surface: heme-bound LBD, 2× ID1 or ID2 peptide.
Source text: To support our ITC results, we performed solution NMR structural footprinting by titrating NCoR ID1 or ID2 peptide into ^15N-labeled REV-ERBβ LBD. For this analysis, we used backbone NMR chemical shift assignments that we previously reported for apo LBD ([18]) and collected three-dimensional (3D) NMR data to obtain backbone NMR chemical shift assignments for heme-bound LBD (fig. S4). […] To qualitatively assess the strength of each interaction, we analyzed the exchange regime of NMR chemical shift changes on the NMR time scale.
Next, we used differential NMR analysis to structurally map the ID1 and ID2 peptide binding surfaces in the heme-bound LBD. In other NRs, the AF-2 coregulator interaction surface is formed by the physical interaction of helix 12 with a surface formed by helices 3 to 5 within the LBD. REV-ERBβ lacks helix 12 but contains the surface formed by helices 3 to 5 including a conserved lysine residue (K421) on helix 3 important for corepressor interaction ([19]). We quantitatively analyzed chemical shift perturbations (CSPs) and line broadening caused by peptide binding in 2D [^1H,^15N]-TROSY-HSQC NMR spectra (Fig. 1D and fig. S6). […] We also observed binding effects on helix 7, which may be attributed to a peptide-induced allosteric conformational change due to interactions between the heme propionate group and G480 on helix 7 (fig. S7).
For generation of ^15N-labeled REV-ERBβ LBD, protein was expressed in BL21(DE3) E. coli cells using M9 minimal media supplemented with ^15NH4Cl (Cambridge Isotope Laboratories) induced at an optical density at 600 nm (OD600) of 0.6 with 0.5 mM isopropyl-β-D-thiogalactopyranoside (IPTG) for 16 hours at 18°C. For generation of ^2H-,^15N-,^13C-labeled REV-ERBβ LBD (~70% deuteration) for peak assignment experiments, cultures were first grown at 37°C in 1 liter of LB media until an OD600 of 0.6 before the cells were pelleted and resuspended in 0.5 liters of M9 minimal media prepared in D2O supplemented with ^13C-D-glucose and ^15NH4Cl (Cambridge Isotope Laboratories). After 1-hour recovery at 37°C, expression was induced with 0.5 mM IPTG for 16 hour at 37°C before harvesting by centrifugation. […]
as §1

Setting [3] is: +Heme LBD, pH 7.4, 25°C, 95% CI.

Experimental for heme-bound REV-ERBβ LBD: NCoR RID mutants were generated by site-directed mutagenesis: The ID1 CoRNR box motif was mutated from [sequence] to [sequence] (ΔID1 and ΔID1ΔID2), and the ID2 CoRNR box motif was mutated from LEDIIRKAL to TEDTTRKAL (ΔID2 and ΔID1ΔID2), as these mutations were previously reported to disrupt CoRNR box binding ([10], [30]). Heme (Sigma-Aldrich, no. 51280) was prepared either as a 1 mM stock in dimethyl sulfoxide (DMSO) stored at 4°C or 50 mM stock in 0.2 M NaOH (solutions prepared in 0.2 M NaOH were always made fresh immediately before the experiment), where indicated. […] Human embryonic kidney (HEK) 293T cells (American Type Culture Collection, no. CRL-11268) were cultured in Dulbecco’s modified eagle medium (DMEM) supplemented with 10% fetal bovine serum, 2 mM L-glutamine, and 1% penicillin-streptomycin at 37°C and 5% CO2 under standard culture conditions. The pcDNA3.1^+ expression vector containing full-length human REV-ERBβ ([31]) and the pGL3-Bmal1-luciferase construct containing the Bmal1 promoter (−816 to +99 of the mouse Bmal1 promoter region) were used in HEK293T cell transfections. Site-directed mutagenesis was performed to mutate the proximal RORE (pRORE mutant), distal RORE (dRORE mutant), or both (p/dRORE mutant) in the pGL3-Bmal1-luciferase construct based on a previous study ([6]) where the ROREs were mutated to disrupt REV-ERBα activity.
Expression was performed using auto-induction media: Cells were grown at 37°C for 5 hours, 30°C for 1 hour, and 18°C for 16 hours before harvesting by centrifugation. Pellets were resuspended in potassium phosphate lysis buffer [40 mM potassium phosphate (pH 7.4), 500 mM KCl, 15 mM imidazole, and 1 mM dithiothreitol (DTT)] supplemented with leupeptin, pepstatin A, lysozyme, and deoxyribonuclease (DNase) I and sonicated on ice. […] A 5-ml aliquot of 6xHis-tagged protein was purified by size exclusion chromatography using a Superdex 75 column equilibrated in time-resolved fluorescence energy transfer (TR-FRET) assay buffer [20 mM potassium phosphate (pH 7.4), 50 mM KCl, and 0.5 mM EDTA]; purified aliquots were stored at −80°C for TR-FRET assays. To cleave the 6xHis tag from the remaining protein, it was incubated overnight with 3C protease (generated in-house) via dialysis; then, protein was reloaded onto the HisTrap columns, and the flow-through was collected. Last, aggregates were removed by size exclusion chromatography using a Superdex 75 column and Hepes gel filtration buffer [20 mM Hepes (pH 7.4), 50 mM KCl, and 0.5 mM EDTA]. Greater than 95% purity was confirmed by SDS-PAGE. Protein was aliquoted and stored at −80°C.
ITC experiments were performed using a MicroCal iTC200. All experiments were solvent-matched and contained 0.1% DMSO (peptide vehicle) and 0.2% 0.2 M solution of NaOH (heme vehicle) final concentrations.
LBD in the syringe was titrated into ID peptide in the sample cell at 25°C with a 60-s delay between injections (2-μl intervals) with a mixing speed of 1200 rpm for a total of 20 injections (or 2 molar equivalents of LBD), unless otherwise noted below.

In the case of `CC[C@H](C)[C@H](NC(=O)[C@H](CC(=O)O)NC(=O)[C@H](CCC(=O)O)NC(=O)[C@H](CC(C)C)NC(=O)CNC(=O)[C@H](CC(C)C)NC(=O)[C@H](CC(N)=O)NC(=O)[C@H](CO)NC(=O)[C@H](C)NC(=O)[C@@H]1CCCN1C(=O)[C@H](CC(=O)O)NC(C)=O)C(=O)N[C@H](C(=O)N[C@@H](CCCNC(=N)N)C(=O)N[C@@H](CCCCN)C(=O)N[C@@H](C)C(=O)N[C@@H](CC(C)C)C(=O)N[C@@H](CCSC)C(=O)NCC(=O)N[C@@H](CO)C(=O)N[C@@H](Cc1ccccc1)C(=O)N[C@@H](CC(=O)O)C(=O)N[C@@H](CC(=O)O)C(=O)N[C@@H](CCCCN)C(N)=O)[C@@H](C)CC` [NCoR ID2 peptide], the “ΔH, enthalpy of binding” value on heme-bound REV-ERBβ LBD (setting [3]) stood at 3.0 kcal/mol. The TΔS on heme-bound REV-ERBβ LBD (+Heme LBD, 95% CI) came out at 10.7 kcal/mol. For the same compound, on heme-bound REV-ERBβ LBD, the “thermodynamic profile of peptide binding (in words), + heme” value was “entropically driven and endothermic”; the “effect of heme on LBD affinity for peptide (in words)” value was “increased LBD affinity”. In assay [1], the “NMR exchange regime on peptide titration” value is “fast”. For the same compound, in assay [2], the “NMR exchange regime on peptide titration” value was “mixture of peak movements in slow and intermediate exchange”; the “NMR CSP and line broadening, binding surface” value was “AF-2 surface residues including K421 showed the largest CSP changes and line broadening”.
For the compound “Ac-RTHRLITLADHICQIITQDFARN-NH2 [NCoR ID1 peptide]”, on heme-bound REV-ERBβ LBD (setting [3]), the “ΔG, free energy of binding” value was -7.7 kcal/mol and the “ΔH, enthalpy of binding” value was found to be 1.7 kcal/mol. On heme-bound REV-ERBβ LBD (+Heme LBD, 95% CI), this compound had a TΔS of 9.3 kcal/mol. Moreover, at heme-bound REV-ERBβ LBD, the “thermodynamic profile of peptide binding (in words), + heme” value was “entropically driven and endothermic”; the “effect of heme on LBD affinity for peptide (in words)” value is reported as “decreased LBD affinity”. Besides, in assay [1], the “NMR exchange regime on peptide titration” value was “slow”. Also, in assay [2], the “NMR exchange regime on peptide titration” value is “mixture of peak movements in slow and intermediate exchange”; the “NMR CSP and line broadening, binding surface” value is “AF-2 surface residues including K421 showed the largest CSP changes and line broadening”.

The values above are taken from paper PMC7840129, “Structural basis for heme-dependent NCoR binding to the transcriptional repressor REV-ERBβ” (Science Advances, 2021).
